The structures appear in SMILES notation. Like-named read-outs stand apart in the source and are kept apart here.

For this assay, the system named is primary rat mixed cortical cells. Kind of assay: In vitro myelination assay (MBP positive myelin strands, fold myelin pixels above background). The class given is cell-based. To be noted: Rattus norvegicus; for fold induction at 1 µM: 1.0 μM compound; for fold induction at 10 µM: 10.0 μM compound. The method in brief: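 Fourteen-day treatment of primary P1 rat mixed cortical cultures, re-dosed at days 6 and 10, at 1.0 μM and 10.0 μM. MBP immunofluorescence was imaged at 10× and myelin strands quantified by software, normalised to untreated wells as fold above background.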

Where [1] appears, read: relative to baseline of no added compound, read-out: Fold myelin pixels above background, 1.0 μM.
The mark [2] stands for this setting: relative to baseline of no added compound, read-out: Fold myelin pixels above background, 10.0 μM.
[3] abbreviates: read-out: Fold myelin pixels above background relative to baseline of no added compound.
The mark [4] stands for this setting: relative to baseline of no added compound, read-out: Fold myelin pixels above background.

For the compound `Cc1cc(Nc2ncn(-c3cc(F)cc(F)c3)n2)cc(N2CC(CC(C)C)N3CCC[C@@H]3C2)c1` (stereo partly drawn) [Compound 29, N-[3-[(8aR)-4-isobutyl-3,4,6,7,8,8a-hexahydro-1H-pyrrolo[1,2-a]pyrazin-2-yl]-5-methyl-phenyl]-1-(3,5-difluorophenyl)-1,2,4-triazol-3-amine], under setting [1], the fold induction at 1 µM was no more than 1. The fold induction at 10 µM under setting [2] was no more than 1.

With `[2H]C1([2H])N(C(=O)C2CC2)C([2H])([2H])C([2H])([2H])N(c2cc(Nc3ncn(-c4cc(F)cc(F)c4)n3)cc(C(F)F)c2)C1([2H])[2H]` [Compound 1041, cyclopropyl-[2,2,3,3,5,5,6,6-octadeuterio-4-[3-(difluoromethyl)-5-[[1-(3,5-difluorophenyl)-1,2,4-triazol-3-yl]amino]phenyl]piperazin-1-yl]methanone], under setting [3], the fold induction at 1 µM was 1 to 10 and the fold induction at 10 µM fell in the range of 1 to 10.

Consider `COc1ccc(-n2cnc(Nc3cc(C)cc(N4CC(N5CCOCC5)C4)c3)n2)cc1` [Compound 841, 1-(4-methoxyphenyl)-N-[3-methyl-5-(3-morpholinoazetidin-1-yl)phenyl]-1,2,4-triazol-3-amine], for which, under setting [3], the fold induction at 1 µM was in the range of 1 to 10 and the fold induction at 10 µM was 10 to 100.

As for `CCC1COCCN1CCNc1cc(C)cc(Nc2ncn(-c3cc(F)cc(F)c3)n2)c1` (stereo not drawn) [Compound 872, N3-[1-(3,5-difluorophenyl)-1,2,4-triazol-3-yl]-N1-[2-(3-ethylmorpholin-4-yl)ethyl]-5-methyl-benzene-1,3-diamine], under setting [3], the fold induction at 1 µM fell in the range of 10 to 100 and the fold induction at 10 µM is no more than 1.

On to `Cc1cc(Nc2ncn(-c3cccnc3)n2)cc(C2COC2)c1` [Compound 270, N-[3-methyl-5-(oxetan-3-yl)phenyl]-1-(3-pyridyl)-1,2,4-triazol-3-amine], for which, under setting [1], the fold induction at 1 µM is 100 to 1000. In addition, the fold induction at 10 µM under setting [2] lay within 100 to 1000.

Take `Cc1cc(Nc2ncn(-c3cc(F)cc(F)c3)n2)c(F)c(N2CC3(CNC3)C2)c1` [Compound 688, N-[3-(2,6-diazaspiro[3.3]heptan-2-yl)-2-fluoro-5-methyl-phenyl]-1-(3,5-difluorophenyl)-1,2,4-triazol-3-amine]: under setting [4], the fold induction at 1 µM was 1 to 10 and the fold induction at 10 µM is no more than 1.

In the case of `Cc1cc(Nc2ncn(-c3cc(F)cc(F)c3)n2)cc([C@@H]2CN(C3COC3)CCO2)c1` (single isomer, unassigned) [Compound 751], under setting [4], the fold induction at 1 µM lay in the range of 10 to 100 and the fold induction at 10 µM was no more than 1.

In the case of `Cc1cc(Nc2ncn(-c3ccc(C#N)cc3)n2)cc(N2CCCC2)c1` [Compound 186, 4-[3-(3-methyl-5-pyrrolidin-1-yl-anilino)-1,2,4-triazol-1-yl]benzonitrile], the fold induction at 1 µM under setting [1] lay in the range of 10 to 100. For the same compound, the fold induction at 10 µM under setting [2] was in the range of 10 to 100.

In the case of `COCCNC1CN(c2cc(C)cc(Nc3ncn(-c4cc(F)cc(F)c4)n3)c2)C1` [Compound 816, 1-(3,5-difluorophenyl)-N-[3-[3-(2-methoxyethylamino)azetidin-1-yl]-5-methyl-phenyl]-1,2,4-triazol-3-amine], under setting [3], the fold induction at 1 µM is 1 to 10 and the fold induction at 10 µM is 1 to 10.

On to `Cc1cc(Nc2ncn(-c3ccccc3)n2)cc(N2CCN(C)CC2)n1` [Compound 156, 2-methyl-6-(4-methylpiperazin-1-yl)-N-(1-phenyl-1,2,4-triazol-3-yl)pyridin-4-amine], for which the fold induction at 1 µM under setting [1] fell in the range of 1000 to 10000. Moreover, the fold induction at 10 µM under setting [2] is no more than 1.

In the case of `Cc1cc(NCC2(N3CCOCC3)CC2)cc(Nc2ncn(-c3cc(F)cc(F)c3)n2)c1` [Compound 951, N1-[1-(3,5-difluorophenyl)-1,2,4-triazol-3-yl]-5-methyl-N3-[(1-morpholinocyclopropyl)methyl]benzene-1,3-diamine], under setting [3], the fold induction at 1 µM was 1 to 10 and the fold induction at 10 µM is no more than 1.

Regarding `Cc1cc(Nc2ncn(-c3ccccc3)n2)cc(N2CCN(C3CCCOC3)CC2)c1` (stereo not drawn) [Compound 172, N-[3-methyl-5-(4-tetrahydropyran-3-ylpiperazin-1-yl)phenyl]-1-phenyl-1,2,4-triazol-3-amine], under setting [1], the fold induction at 1 µM fell in the range of 1000 to 10000. For the same compound, under setting [2], the fold induction at 10 µM lay within 1 to 10.

As for `Fc1cc(F)cc(-n2cnc(Nc3cc(C4CC4)nc(N4CCCCC4)c3)n2)c1` [Compound 378, 2-cyclopropyl-N-[1-(3,5-difluorophenyl)-1,2,4-triazol-3-yl]-6-(1-piperidyl)pyridin-4-amine], under setting [1], the fold induction at 1 µM was 1 to 10. For the same compound, under setting [2], the fold induction at 10 µM was in the range of 10 to 100.

With `Fc1cc(-n2cnc(Nc3cc(C(F)F)cc(N4CCOCC4)c3)n2)ccn1` [Compound 85, N-[3-(difluoromethyl)-5-morpholino-phenyl]-1-(2-fluoro-4-pyridyl)-1,2,4-triazol-3-amine], under setting [1], the fold induction at 1 µM is 100 to 1000. For the same compound, the fold induction at 10 µM under setting [2] was 100 to 1000.

In the case of `Fc1cc(F)cc(-n2cnc(Nc3cc(C(F)(F)F)cc(N4CCNCC4)n3)n2)c1` [Compound 556, N-[1-(3,5-difluorophenyl)-1,2,4-triazol-3-yl]-6-piperazin-1-yl-4-(trifluoromethyl)pyridin-2-amine], under setting [4], the fold induction at 1 µM was 1 to 10 and the fold induction at 10 µM fell in the range of 1 to 10.

With `Fc1ccc(-n2cnc(Nc3cc(C(F)F)cc(N4CCN(C5COC5)CC4)n3)n2)cc1` [Compound 806, 4-(difluoromethyl)-N-[1-(4-fluorophenyl)-1,2,4-triazol-3-yl]-6-[4-(oxetan-3-yl)piperazin-1-yl]pyridin-2-amine], under setting [3], the fold induction at 1 µM fell in the range of 1 to 10 and the fold induction at 10 µM was no more than 1.

Take `Cc1cc(Nc2ncn(-c3cccc(F)c3)n2)cc(N2CCCC2)c1` [Compound 272, 1-(3-fluorophenyl)-N-(3-methyl-5-pyrrolidin-1-yl-phenyl)-1,2,4-triazol-3-amine]: the fold induction at 1 µM under setting [1] was 10 to 100. The fold induction at 10 µM under setting [2] was no more than 1.

`Fc1ccc(-n2cnc(Nc3cc(C4CCOCC4)nc(C4CC4)c3)n2)cc1F` [Compound 150, 2-cyclopropyl-N-(1-(3,4-difluorophenyl)-1H-1,2,4-triazol-3-yl)-6-(tetrahydro-2H-pyran-4-yl)pyridin-4-amine]: under setting [1], the fold induction at 1 µM is 1000 to 10000. Further, the fold induction at 10 µM under setting [2] was no more than 1.

On to `Cc1cc(Nc2ncn(-c3cc(F)cc(F)c3)n2)cc(N2CCOC(CCO)C2)c1` (stereo not drawn) [Compound 958, 2-[4-[3-[[1-(3,5-difluorophenyl)-1,2,4-triazol-3-yl]amino]-5-methyl-phenyl]morpholin-2-yl]ethanol], for which, under setting [3], the fold induction at 1 µM fell in the range of 10 to 100 and the fold induction at 10 µM is no more than 1.

Turning to `N#Cc1cc(Nc2ncn(-c3ccc(F)c(F)c3)n2)cc(N2CCOCC2)c1` [Compound 668, 3-[[1-(3,4-difluorophenyl)-1,2,4-triazol-3-yl]amino]-5-morpholino-benzonitrile], under setting [4], the fold induction at 1 µM lay in the range of 1 to 10 and the fold induction at 10 µM lay within 1 to 10.

For the compound `Cc1cc(Nc2ncn(-c3cc(F)cc(F)c3)n2)c(F)c(N(C)C2COC2)c1` [Compound 969, N3-[1-(3,5-difluorophenyl)-1,2,4-triazol-3-yl]-2-fluoro-N1,5-dimethyl-N1-(oxetan-3-yl)benzene-1,3-diamine], under setting [3], the fold induction at 1 µM was in the range of 1 to 10 and the fold induction at 10 µM is no more than 1.

(Values after patent US10766869B2, “Triazoles for the treatment of demyelinating dieases” (Vertex Pharmaceuticals Incorporated, priority 2015, dated 2020).)
